Data on four compounds can be found in ChEMBL document CHEMBL5500328, “Comprehensive review on the elaboration of payloads derived from natural products for antibody-drug conjugates” (Eur J Med Chem, 2024).

Test [1] concerns CCRF-CEM. The experiment in a line: Cytotoxicity against human CCRF-CEM cells assessed as reduction in cell growth. It counts as functional, cell-based.
Test [2] concerns the target Tubulin. The experiment in a line: Binding affinity to tubulin (unknown origin) assessed as dissociation constant by SPR analysis. It counts as protein-complex assay, Homo sapiens. A general note: SPR reads the build-up and loss of mass on a sensor chip optically.
The test system of test [3] is KB 3-1. The experiment in a line: Cytotoxicity against human KB-3-1 cells assessed as inhibition of cell growth. It counts as functional, cell-based.
Test [4] is described as follows: Cytotoxicity against human L540cy assessed as reduction in cell growth incubated for 4 days by CellTiter-Glo assay. It counts as functional, cell-based. Particulars: 96 h. For orientation: ATP-based viability assays read luminescence as a measure of living cells.
The test system of test [5] is LoVo. Description: Cytotoxicity against human LoVo cells. It counts as functional, cell-based.
In test [6] the test system is KB. The experiment in a line: Cytotoxicity against human KB cells assessed as reduction in cell viability. It counts as functional, cell-based.

As a reminder, the IC50 is the concentration at which inhibition is half-maximal. Consider `COc1ccc(C[C@H]2NC(=O)/C=C/C[C@@H]([C@H](C)[C@H]3O[C@H]3c3ccc(F)cc3)OC(=O)[C@H](CC(C)C)OC(=O)C(C)(C)CNC2=O)cc1Cl`, for which, in test [1], the IC50 turned out to be 33 pM.

As a reminder, the Kd is the concentration at which binding is half-saturated. `COc1ccc(C[C@H]2NC(=O)/C=C/C[C@@H]([C@H](C)[C@H]3O[C@H]3c3ccccc3)OC(=O)[C@H](CC(C)C)OC(=O)C(C)(C)CNC2=O)cc1Cl`: the Kd in test [2] was 47000 pM. In test [3], the IC50 came to 15 pM.

Turning to `CC[C@@]1(O)C(=O)OCc2c1cc1n(c2=O)Cc2cc3c(CN)c4c(cc3nc2-1)OCO4`, the IC50 in test [4] was found to be 1000 pM. As for `COc1ccc(C[C@H]2NC(=O)/C=C/C[C@@H]([C@H](C)[C@H]3O[C@H]3c3ccccc3)OC(=O)[C@H](CC(C)C)OC(=O)[C@H](C)CNC2=O)cc1Cl` [CRYPTOPHYCIN 39], the IC50 in test [5] came to 7.63 pM; in test [6], 4.58 pM.
